Experiment [1] deals with T1, 5-HT1A receptor (Rattus norvegicus, UniProt P19327).
T1 construct: 15 μg/mL of hippocampus homogenate was incubated in triplicate with 0.8 nM; from tissue; host or cells: rat hippocampus homogenate
T1 sequence (P19327 1-422): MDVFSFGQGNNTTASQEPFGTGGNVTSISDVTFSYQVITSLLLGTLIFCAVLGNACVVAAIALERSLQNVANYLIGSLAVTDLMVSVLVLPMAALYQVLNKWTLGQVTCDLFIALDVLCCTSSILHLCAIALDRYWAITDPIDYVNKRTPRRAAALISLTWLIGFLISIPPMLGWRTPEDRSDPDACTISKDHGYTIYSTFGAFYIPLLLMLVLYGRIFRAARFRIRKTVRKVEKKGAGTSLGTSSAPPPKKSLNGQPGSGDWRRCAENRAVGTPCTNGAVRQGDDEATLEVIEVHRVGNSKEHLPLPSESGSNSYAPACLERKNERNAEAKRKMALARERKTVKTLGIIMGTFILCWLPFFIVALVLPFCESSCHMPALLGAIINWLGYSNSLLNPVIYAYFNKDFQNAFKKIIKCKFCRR
Description: Functional 5-HT1A receptor [35S]GTPγS assay (agonist mode).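 Further: male Sprague-Dawley rat hippocampal membranes incubated 90 min at 37 °C, bound label counted by scintillation after filtration, non-specific binding defined with 100 µM unlabeled GTPγS, one-site curve fit.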 It is filed as biochemical. To be noted: [35S]GTPγS, rat hippocampus homogenate. On the technique in general: GTPγS resists hydrolysis and so accumulates on activated G proteins.

For experiment [2], the target named is T2, D2 receptor (Rattus norvegicus, UniProt P61169).
T2 construct: 15μg/mL of striatal homogenate was incubated in triplicate; from tissue; host or cells: rat striatum homogenate
T2 sequence (P61169 whole entry): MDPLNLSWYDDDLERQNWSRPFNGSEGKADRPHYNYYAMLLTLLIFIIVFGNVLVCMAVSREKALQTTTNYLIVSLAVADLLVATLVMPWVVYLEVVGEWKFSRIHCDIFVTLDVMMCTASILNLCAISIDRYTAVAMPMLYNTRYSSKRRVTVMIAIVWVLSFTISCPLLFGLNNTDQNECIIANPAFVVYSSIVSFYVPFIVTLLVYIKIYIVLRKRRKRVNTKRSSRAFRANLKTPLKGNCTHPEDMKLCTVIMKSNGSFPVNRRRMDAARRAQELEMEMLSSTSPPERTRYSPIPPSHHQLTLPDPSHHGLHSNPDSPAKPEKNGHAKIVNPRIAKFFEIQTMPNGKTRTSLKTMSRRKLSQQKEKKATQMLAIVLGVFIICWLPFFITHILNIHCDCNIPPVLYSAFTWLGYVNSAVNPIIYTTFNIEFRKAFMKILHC
Description: Functional D2 receptor [35S]GTPγS assay (antagonist mode vs dopamine; basal for agonism).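 Further: [35S]GTPγS binding counted by scintillation after 60 min at 30 °C, nonspecific binding defined with 100 µM unlabeled GTPγS, inhibition curves fitted by one-site nonlinear regression.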 The format is biochemical. To be noted: against 40 µM dopamine, rat striatal homogenate.

The target of experiment [3] is 5-HT2A receptor (Rattus norvegicus, UniProt P14842). Nature of the experiment: 5-HT2A competition binding assay ([3H]ketanserin, frontal cortex homogenates). To be noted: read-out: 5-HT2A Ki (95% CI).
Sequence of 5-HT2A receptor (P14842 whole entry): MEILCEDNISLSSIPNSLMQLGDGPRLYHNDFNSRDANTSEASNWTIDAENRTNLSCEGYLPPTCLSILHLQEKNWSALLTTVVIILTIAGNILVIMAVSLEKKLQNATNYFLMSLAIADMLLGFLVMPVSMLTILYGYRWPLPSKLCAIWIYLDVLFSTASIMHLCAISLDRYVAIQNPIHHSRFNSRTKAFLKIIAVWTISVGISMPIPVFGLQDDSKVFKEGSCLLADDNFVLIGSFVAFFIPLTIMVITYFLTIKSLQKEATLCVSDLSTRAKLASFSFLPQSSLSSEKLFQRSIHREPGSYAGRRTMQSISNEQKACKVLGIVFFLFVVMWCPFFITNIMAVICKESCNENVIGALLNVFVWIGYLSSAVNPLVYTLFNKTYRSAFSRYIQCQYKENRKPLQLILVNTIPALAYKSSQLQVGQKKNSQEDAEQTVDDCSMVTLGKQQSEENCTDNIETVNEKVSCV
Experiment [4] deals with T3, human 5-HT2C receptor (Homo sapiens, UniProt P28335).
T3 sequence (P28335 33-458): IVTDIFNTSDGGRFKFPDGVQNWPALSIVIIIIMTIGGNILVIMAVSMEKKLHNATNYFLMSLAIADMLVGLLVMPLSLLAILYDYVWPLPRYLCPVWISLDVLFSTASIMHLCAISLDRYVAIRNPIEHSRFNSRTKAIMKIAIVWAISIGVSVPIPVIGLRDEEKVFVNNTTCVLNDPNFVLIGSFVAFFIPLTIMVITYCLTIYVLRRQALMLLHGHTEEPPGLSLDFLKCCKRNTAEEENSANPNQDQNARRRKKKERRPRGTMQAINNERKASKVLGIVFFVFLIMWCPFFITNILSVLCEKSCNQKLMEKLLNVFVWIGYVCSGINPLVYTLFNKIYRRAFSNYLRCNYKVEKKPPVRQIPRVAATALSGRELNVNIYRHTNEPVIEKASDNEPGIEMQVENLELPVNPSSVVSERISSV
Description: 5-HT2C competition binding assay ([3H]mesulergine, transfected cell membranes). To be noted: [3H]mesulergine, human 5-HT2C membranes.

The subject of experiment [5] is 5-HT2A receptors (5-HT-induced contractions in the rat ileum). Nature of the experiment: 5-HT-evoked contractions of isolated rat ileum. To be noted: 5-HT 10^−5 M; compounds 10^−8–10^−5 M.
Experiment [6] deals with mice. Nature of the experiment: Elevated plus-maze test (EPM). It is filed as in vivo, mouse. To be noted: 5 mg/kg i.p., 60 min before the test. Here is the method: The experiments were carried out, in the Experimental Medicine Center of Medical University of Lublin, on six-week-old naive male Swiss mice, weighing 24–30 g. The mice were housed in cages, five individuals per cage in an environmentally controlled rooms (ambient temperature 22 ± 1 °C; relative humidity 50–60%; 12 h light/dark cycle, lights on at 8:00). Standard laboratory food(LSM-Agropol-Motycz, Lublin, Poland) and filtered water were available ad libitum. All the experimental procedures were carried out, according to the National Institute of Health Guidelines for the Care and Use of Laboratory Animals and to the European Community Council Directive for the Care and Use of Laboratory Animals of 22 September 2010 (2010/63/EU) and approved by the Local Ethics Committee for Animal Experimentation in Lublin. The investigated compounds (Norbo-4, Norbo-8, Norbo-10, Norbo-14, Norbo-18 and Norbo-20) in all tests were administered intraperitoneally (i.p.), dissolved in dimethyl sulfoxide (DMSO, final concentration of 0.1%) and then diluted by aqueous solution of 0.5% methylcellulose (tylose) and injected 60 min before the tests. […] All compounds were given in a volume of 10 mL/kg to mice. The control animals received an equivalent volume of the solvent at the respective time before the tests. All the experiments were conducted in the light phase between 09.00 a.m. and 14.00 p.m. The experiments were performed by an observer unaware of the treatment administered. The EPM studies were carried out on mice according to the method of Lister. The EPM apparatus was made of plexiglass and consisted of two open (30 × 5 cm) and two enclosed (30 × 5 × 15 cm) arms. The arms extended from a central platform of 5 × 5 cm. The apparatus was mounted on a plexiglass base, raising it 38.5 cm above the floor, and illuminated by a red light. The test consisted of placing a mouse in the center of the apparatus (facing an open arm) and allowing it to freely explore. The number of entries into the open arms and the time spent in these arms were scored for a 5 min test period. An entry was defined as placing all four paws within the boundaries of the arm. The following measures were obtained from the test: the total number of arm entries; the percentage of arm entries into the open arms; and the time spent in the open arms expressed as a percentage of the time spent in both the open and closed arms. Anxiolytic activity was indicated by increases in the time spent in open arms and in the number of open arm entries. The total number of entries into either type of arm was used additionally as a measure of overall motor activity.

The subject of experiment [7] is mice. Description: Forced swim test (FST, Porsolt's test). The format is in vivo, mouse. To be noted: 15 mg/kg i.p., 60 min before the test. Here is the method:
The experiments were carried out, in the Experimental Medicine Center of Medical University of Lublin, on six-week-old naive male Swiss mice, weighing 24–30 g. The mice were housed in cages, five individuals per cage in an environmentally controlled rooms (ambient temperature 22 ± 1 °C; relative humidity 50–60%; 12 h light/dark cycle, lights on at 8:00). Standard laboratory food(LSM-Agropol-Motycz, Lublin, Poland) and filtered water were available ad libitum. All the experimental procedures were carried out, according to the National Institute of Health Guidelines for the Care and Use of Laboratory Animals and to the European Community Council Directive for the Care and Use of Laboratory Animals of 22 September 2010 (2010/63/EU) and approved by the Local Ethics Committee for Animal Experimentation in Lublin. The investigated compounds (Norbo-4, Norbo-8, Norbo-10, Norbo-14, Norbo-18 and Norbo-20) in all tests were administered intraperitoneally (i.p.), dissolved in dimethyl sulfoxide (DMSO, final concentration of 0.1%) and then diluted by aqueous solution of 0.5% methylcellulose (tylose) and injected 60 min before the tests. […] All compounds were given in a volume of 10 mL/kg to mice. The control animals received an equivalent volume of the solvent at the respective time before the tests. All the experiments were conducted in the light phase between 09.00 a.m. and 14.00 p.m. The experiments were performed by an observer unaware of the treatment administered. The experiment was carried out according to the method of Porsolt et al.. Mice were individually placed in a glass cylinder (25 cm high; 10 cm in diameter) containing water maintained at 23–25 °C, and were left there for 6 min. The total duration of immobility was recorded during the last 4 min of a 6-min test session. A mouse was regarded as immobile when it remained floating on the water, making only small movements to keep its head above the water.

The mark [8] stands for this setting: ± SEM, read-out: 5-HT1A Receptor G-Protein Stimulation pEC50 (converted).
Setting [9] is: read-out: D2 receptor antagonistic activity IC50 (95% CI).
The mark [10] stands for this setting: read-out: D2 receptor antagonistic activity pIC50 (M ± SEM) (converted).

Consider five compounds from paper PMC9572521, “Synthesis, Docking Studies and Pharmacological Evaluation of Serotoninergic Ligands Containing a 5-Norbornene-2-Carboxamide Nucleus” (Molecules, 2022).

Each structure is given as a SMILES string. Read-outs that look alike come from different tables or passages of the source.

For the compound `O=C(NCCCN1CCN(c2ccc(F)cc2)CC1)C1CC2C=CC1C2` (stereo not drawn) [Norbo-17, Exo-N-(3-(4-(4-fluorophenyl)piperazin-1-yl)propyl)bicyclo[2.2.1]hept-5-ene-2-carboxamide], in experiment [1], the “5-HT1A Receptor G-Protein Stimulation Emax (%) ± SEM” value is listed as 122 ± 2.0 ^&&& %. For the same compound, the figures for the EC50 in experiment [1] (read-out: 5-HT1A Receptor G-Protein Stimulation EC50 (95% CI)) and in experiment [1] (setting [8]) were 553 nM and 631 nM, respectively. The values for the IC50 in experiment [2] (setting [9]) and in experiment [2] (setting [10]) were 59500 nM and 60300 nM, respectively. For the same compound, the Ki was 22.7 nM in experiment [3]; 2360 nM in experiment [4] (read-out: 5-HT2C Ki (95% CI)); 2400 nM in experiment [4] (± SEM, read-out: 5-HT2C pKi (converted)). In addition, the “Emax, maximal inhibitory effect on 5-HT-induced contractions in the rat ileum” value (“Emax, maximal inhibitory effect” below) in experiment [5] is listed as 32.50%.

As a reminder, the Emax is the maximal effect, on the per cent scale that the assay sets. Take `O=C(NCCCN1CCN(c2cccc(C(F)(F)F)c2)CC1)C1CC2C=CC1C2` (stereo not drawn) [Norbo-19, Exo-N-(3-(4-(3-(trifluoromethyl)phenyl)piperazin-1-yl)propyl)bicyclo[2.2.1]hept-5-ene-2-carboxamide]: the Emax in experiment [1] (read-out: 5-HT1A Receptor G-Protein Stimulation Emax (%) ± SEM) stood at 162 ± 2.1%. In experiment [1] (setting [8]), the EC50 was 316 nM. For the same compound, the IC50 in experiment [2] (setting [9]) came to 144000 nM. In addition, the Ki turned out to be 42.6 nM in experiment [3] and 167 nM in experiment [4] (read-out: 5-HT2C Ki (95% CI)). Also, in experiment [5], the “Emax, maximal inhibitory effect” value is listed as 39.00%.

Take `O=C(NCCCN1CCN(c2cccc(C(F)(F)F)c2)CC1)C1CC2C=CC1C2` (stereo not drawn) [Norbo-20, endo-N-(3-(4-(3-(trifluoromethyl)phenyl)piperazin-1-yl)propyl)bicyclo[2.2.1]hept-5-ene-2-carboxamide]: the “5-HT1A Receptor G-Protein Stimulation Emax (%) ± SEM” value in experiment [1] is on record as 167 ± 1.4 %. Moreover, the EC50 in experiment [1] (setting [8]) is 200 nM. For the same compound, the IC50 in experiment [2] (setting [9]) is 52700 nM; in experiment [2] (setting [10]), 56200 nM. For the same compound, the Ki was 22.9 nM in experiment [3] and 1950 nM in experiment [4] (read-out: 5-HT2C Ki (95% CI)). Moreover, the “Emax, maximal inhibitory effect” value in experiment [5] came to 21.79%.

In the case of `O=C1CC2(CCCC2)CC(=O)N1CCCCN1CCN(c2ncccn2)CC1` [buspirone, reference compound], in experiment [6], the “percentage of the open arm entries (EPM)” value was “significant increase” and the “percentage of time spent in open arms (EPM)” value was “significant increase”. For the same compound, in experiment [6] (listed as Buspirone), the “percentage of the open arm entries (EPM)” value is reported as “increased the percentage of entries into the open arms” and the “percentage of time spent in open arms (EPM)” value was “prolonged the time”.

As to `CN[C@H]1CC[C@@H](c2ccc(Cl)c(Cl)c2)c2ccccc21` [sertraline, reference compound], the results for the “immobility time in FST” value in experiment [7] and in experiment [7] (listed as Sertraline) were “significant reduction in the immobility time” and “significantly shortened the immobility time”, respectively.
